Results on three molecules are retold here after US9518130B2, “Use of ERBB3 inhibitors in the treatment of triple negative and basal-like breast cancers” (Merrimack Pharmaceuticals, Inc., priority 2010, dated 2016).

“And” between values parts separate entries of the source, which are not always exact repeats. Identical values can stand only once.

The test system of assay [1] is MDA-MB-231 triple negative breast cancer xenograft model. As to the kind of experiment: MM-121 combination with targeted and chemotherapies in vivo (Example 5). The following applies: MM121 300 ug/mouse Q3D, erlotinib 50 mg/kg PO, cetuximab 2 mg/kg Q3D, paclitaxel 10 mg/kg.
Method: Balb/c nude mice (female, 4-5 weeks old from Charles River lab) are implanted orthotopically with 10×10^6 cells in mammary pad. Tumors are allowed to reach average of 150 mm^3 in size before randomization into 9 groups of 8 mice, containing mice with a similar size distribution of tumors. […] Treatment is continued for 4 weeks. Tumors are measured twice weekly and tumor volume is calculated as p/6×length×width, where the width is the shorter measurement.
Assay [2] shares this test system. As to the kind of experiment: Inhibition of tumor growth in vivo by combination treatment with MM-121 and paclitaxel (Example 4). On the set-up: species or system Balb/c nude mice. The following applies: for mean tumor volumes: MM121 150 μg/mouse Q3D ip, paclitaxel 5 mg/kg; for effect on tumor growth (in words): sub-optimal doses, FIG. 3. The text has this:
Treatment is continued for 4 weeks. […] Results:

Assay [3] relates to MDA-MB-231 human triple negative breast cancer cells. As to the kind of experiment: MM-121 effects on MDA-MB-231 xenograft (subcutaneous flank or mammary fat pad). It is filed as in vivo, Balb/c nude mice. The following applies: MM-121 600 ug per mouse IP every 3 days; FIG. 2. On the procedure:
Balb/c nude mice are injected under general anesthesia with 10^7 MDA-MB-231 human triple negative breast cancer cells (ATCC) either subcutaneously in the flank or into the mammary fat pad. Mice with established tumors (i.e., after 7-10 days of tumor growth following injection of cells) are then treated IP with either PBS or MM-121 every 3 days with 600 ug MM-121 per mouse as described in Example 1. Tumor volume is measured twice a week as described in Example 1.

Assay [4] relates to triple negative human mammary carcinoma xenograft MAXF449. As to the kind of experiment: Anti-tumor efficacy of MM-121 monotherapy in MAXF449 xenograft. It is filed as in vivo, NMRI nude mice. The following applies: MM-121 600 μg per mouse IP every three days. On the procedure:
An analysis of the anti-tumor efficacy and tolerability of MM-121 treatment of tumor-bearing mice is carried out using triple negative human mammary carcinoma xenograft MAXF449 (ONCOTEST GmbH, Frieburg, Germany) in NMRI nude mice. MAXF449 is a Human tumor explant (histologically described upon explant as solid invasive ductal, and poorly defined) established via subcutaneous injection in serial passages in nude mice. The MAXF449 cells used in these experiments have been passaged 22 times. NMRI nude mice are obtained from Taconic farms, Charles River Laboratories International, or Harlan Laboratories. […]
To investigate anti-tumor efficacy in monotherapy, MM-121 or vehicle control (100 μL) is given to tumor-bearing mice at 600 μg per mouse (MM-121 as a 6 mg/mL solution in PBS) by IP injection every three days. […] Efficacy is determined by comparing tumor growth between the antibody-treated mice and the vehicle control mice and is expressed as the experimental to control ratio of median relative tumor volumes (T/C value). […]
Mice are randomized and therapy begins when a sufficient number of individual tumors have grown to a volume of approximately 200 mm3. Tumors are measured (L×W) by digital caliper measurement and the tumor volume is calculated using the formula Pi/6 (W2×L). […]

Where [5] appears, read: 1st time point column (day head not given; FIG. 3 starts at 28 days following injection).
The mark [6] stands for this setting: 2nd time point column (day head not given).
Where [7] appears, read: 3rd time point column (day head not given).
[8] abbreviates: 4th time point column (day head not given).
The mark [9] stands for this setting: 5th time point column (day head not given).
Setting [10] is: 6th time point column (day head not given).

In the case of `C#Cc1cccc(Nc2ncnc3cc(OCCOC)c(OCCOC)cc23)c1` [erlotinib], the mean tumor volumes in assay [1] (Day 28) was 172.1 mm^3; in assay [1] (Day 32) it was 182.1 mm^3; in assay [1] (Day 36) it was 216.1 mm^3; in assay [1] (Day 39), 273.2 mm^3; in assay [1] (Day 43), 252.8 mm^3; in assay [1] (Day 46), 245.6 mm^3. Further, the values for the mean tumor volumes in assay [1] (Day 49) and in assay [1] (Day 53) were 303.1 mm^3 and 327.4 mm^3, respectively.

`CC(=O)O[C@H]1C(=O)[C@@]2(C)[C@H]([C@H](OC(=O)c3ccccc3)[C@]3(O)C[C@H](OC(=O)[C@H](O)[C@@H](NC(=O)c4ccccc4)c4ccccc4)C(C)=C1C3(C)C)[C@]1(OC(C)=O)CO[C@@H]1C[C@@H]2O` [paclitaxel]: the mean tumor volumes in assay [2] (setting [5]) is given as 97.9 mm^3; in assay [2] (setting [6]) it was 113.5 mm^3; in assay [2] (setting [7]), 144.6 mm^3; in assay [2] (setting [8]), 166.2 mm^3; in assay [2] (setting [9]), 178.8 mm^3; in assay [2] (setting [10]), 202.2 mm^3. The mean tumor volumes in assay [1] (Day 28) stood at 155.2 mm^3; in assay [1] (Day 32), 167.0 mm^3; in assay [1] (Day 36), 182.4 mm^3; in assay [1] (Day 39), 216.6 mm^3; in assay [1] (Day 43) it was 228.1 mm^3; in assay [1] (Day 46), 247.0 mm^3. The mean tumor volumes is listed as 292.6 mm^3 in assay [1] (Day 49) and 383.5 mm^3 in assay [1] (Day 53). Further, the “effect on tumor growth (in words)” value in assay [2] is reported as “inhibited tumor growth”.

B1: MM-121: anti-ErbB3 monoclonal antibody comprising VH and VL sequences as shown in SEQ ID NOs: 1 and 2 (antibody, listed as Homo sapiens, V domains shown)
VH: EVQLLESGGGLVQPGGSLRLSCAASGFTFSHYVMAWVRQAPGKGLEWVSSISSSGGWTLYADSVKGRFTISRDNSKNTLYLQMNSLRAEDTAVYYCTRGLKMATIFDYWGQGTLVTVSS
VL: QSALTQPASVSGSPGQSITISCTGTSSDVGSYNVVSWYQQHPGKAPKLIIYEVSQRPSGVSNRFSGSKSGNTASLTISGLQTEDEADYYCCSYAGSSIFVIFGGGTKVTVL
As to B1, the “effect on tumor growth (in words)” value in assay [3] is “stopped human triple negative breast cancer tumor growth essentially completely”; in assay [2], “inhibited tumor growth”; in assay [4] (FIG. 1), “inhibited or stopped tumor growth, and in some cases reduced tumor size”. For the same molecule, the mean tumor volumes in assay [2] (setting [5]) is reported as 99.4 mm^3; in assay [2] (setting [6]) it was 115.5 mm^3; in assay [2] (setting [7]), 137.5 mm^3; in assay [2] (setting [8]) it was 180.4 mm^3; in assay [2] (setting [9]), 187.2 mm^3; in assay [2] (setting [10]) it was 242.7 mm^3. Moreover, the mean tumor volumes in assay [1] (Day 28) stood at 178.6 mm^3; in assay [1] (Day 32), 197.3 mm^3; in assay [1] (Day 36), 219.1 mm^3; in assay [1] (Day 39), 257.8 mm^3; in assay [1] (Day 43), 269.4 mm^3; in assay [1] (Day 46) it was 291.4 mm^3. Moreover, the mean tumor volumes in assay [1] (Day 49) is recorded as 351.3 mm^3; in assay [1] (Day 53) it was 425.0 mm^3. The “TGI (tumor growth inhibition)” value in assay [4] (MAXF449 xenograft, NMRI nude mice) is “approximately 200% and 200%”.
